Experimental data: US20250195638A1, “TREATMENT AND PREVENTION OF CONDITIONS ASSOCIATED WITH RESPIRATORY DISEASES” (priority 2020, published 2025)

System: Plasmid (pMB57.6)-DNA
Format: binding
Details: 0.5 μM

## SARS-CoV-2 (2019-nCoV) nucleocapsid recombinant protein [N-protein]
  decrease of fluorescence intensity of DNA-DiYO-1 complex: 96.3%
